We go through 39 compounds from patent US20250320184A1 (SIRONAX LTD., priority 2022, published 2025).

pIC50: −log10 of the molar value.

This experiment has as its target T1, SARM1 (50-724) (Homo sapiens, UniProt Q6SZW1).
T1 sequence (Q6SZW1 50-724): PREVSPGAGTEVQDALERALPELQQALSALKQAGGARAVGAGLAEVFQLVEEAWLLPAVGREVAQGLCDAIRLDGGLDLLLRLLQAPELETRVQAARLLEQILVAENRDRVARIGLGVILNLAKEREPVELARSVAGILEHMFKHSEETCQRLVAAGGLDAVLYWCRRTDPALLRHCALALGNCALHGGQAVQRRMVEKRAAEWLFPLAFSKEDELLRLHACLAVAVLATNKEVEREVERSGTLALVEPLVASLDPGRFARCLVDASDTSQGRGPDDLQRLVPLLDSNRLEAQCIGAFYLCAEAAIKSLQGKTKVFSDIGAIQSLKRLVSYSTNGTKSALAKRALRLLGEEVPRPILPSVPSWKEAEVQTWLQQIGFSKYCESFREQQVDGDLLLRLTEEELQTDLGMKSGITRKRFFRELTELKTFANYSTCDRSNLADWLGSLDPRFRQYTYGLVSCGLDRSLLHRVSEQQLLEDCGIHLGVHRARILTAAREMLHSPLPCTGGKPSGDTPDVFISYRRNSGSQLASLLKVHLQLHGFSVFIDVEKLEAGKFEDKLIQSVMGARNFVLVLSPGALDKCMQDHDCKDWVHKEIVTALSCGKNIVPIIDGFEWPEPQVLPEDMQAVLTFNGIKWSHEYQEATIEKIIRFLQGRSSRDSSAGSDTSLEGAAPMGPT
The experiment can be described thus: biochemical.
Protocol: An enzymatic assay was performed in a 384-well plate using Dulbecco's phosphate-buffered saline (PBS) as the reaction buffer. […] The reaction was initiated by adding a mixture of 200 μM nicotinamide mononucleotide (NMN) as activator and 100 μM NAD^+ as substrate. After 1 h of incubation at room temperature, the reaction was terminated with 10 times volume of 70% acetonitrile, then centrifuged at 3800 rpm for 10 min.
As to `CC1(C)C(=O)N(Cc2ccncc2)c2cc(NS(=O)(=O)c3cccc(Cl)c3Cl)ccc21` [Compound 309, 2,3-dichloro-N-(3,3-dimethyl-2-oxo-1-(pyridin-4-ylmethyl)indolin-6-yl)benzenesulfonamide], the pIC50 (in general, the negative decadic logarithm of the IC50, by convention in mol/L) is above 7.00.

The compound `CC1(C)CN(C(=O)C2(C(N)=O)CC2)c2cc(NS(=O)(=O)c3cccc(Cl)c3Cl)ccc21` [Compound 313, 1-(6-((2,3-dichlorophenyl)sulfonamido)-3,3-dimethylindoline-1-carbonyl)cyclopropane-1-carboxamide] gave a pIC50 above 7.00.

The compound `CC1(C)CN(S(N)(=O)=O)c2cc(NS(=O)(=O)c3cccc(Cl)c3Cl)ccc21` [Compound 319, 6-((2,3-dichlorophenyl)sulfonamido)-3,3-dimethylindoline-1-sulfonamide] had a pIC50 above 7.00.

In turn, `CC(Nc1ccc2cc[nH]c(=O)c2c1)c1nn(C2CCC2)c(Cl)c1Cl` (stereo not drawn) [Compound 322, 7-((1-(4,5-dichloro-1-cyclobutyl-1H-pyrazol-3-yl)ethyl)amino)isoquinolin-1(2H)-one] had a pIC50 above 7.00.

Turning to `CC1(C)CN(C(=O)c2cc[nH]c(=O)c2)c2cc(NS(=O)(=O)c3cccc(Cl)c3Cl)ccc21` [Compound 326, 2,3-dichloro-N-(3,3-dimethyl-1-(2-oxo-1,2-dihydropyridine-4-carbonyl)indolin-6-yl)benzenesulfonamide], the pIC50 was above 7.00.

Regarding `CC1(C)C(=O)N(CC2CNC(=O)CO2)c2cc(NS(=O)(=O)c3cccc(Cl)c3Cl)ccc21` (stereo not drawn) [Compound 333, 2,3-dichloro-N-(3,3-dimethyl-2-oxo-1-((5-oxomorpholin-2-yl)methyl)indolin-6-yl)benzenesulfonamide], the pIC50 was above 7.00.

Regarding `CC(Nc1cc(F)c2ncn(C3CC(O)C3)c(=O)c2c1)c1nc(Cl)c(Cl)s1` (stereo not drawn) [Compound 340, 6-((1-(4,5-dichlorothiazol-2-yl)ethyl)amino)-8-fluoro-3-(3-ydroxycyclobutyl)quinazolin-4(3H)-one], the pIC50 was above 7.00.

The compound `Cc1ccc(C)c(S(=O)(=O)Nc2ccc3c(c2)C(=O)NCC3)c1` [Example 2A, 2,5-dimethyl-N-(1-oxo-1,2,3,4-tetrahydroisoquinolin-7-yl)benzenesulfonamide] had a pIC50 below 6.00.

`Cc1ccc(S(=O)(=O)Nc2ccc3c(c2)C(=O)NCC3)c(C)c1` [Example 3A, 2,4-dimethyl-N-(1-oxo-1,2,3,4-tetrahydroisoquinolin-7-yl)benzenesulfonamide] had a pIC50 below 6.00.

As for `Cc1cc(F)ccc1S(=O)(=O)Nc1ccc2c(c1)C(=O)NCC2` [Example 4A, 4-fluoro-2-methyl-N-(1-oxo-1,2,3,4-tetrahydroisoquinolin-7-yl)benzenesulfonamide], the pIC50 was below 6.00.

Regarding `Cc1c(Cl)cccc1S(=O)(=O)Nc1ccc2c(c1)C(=O)NCC2` [Example 5A, 3-chloro-2-methyl-N-(1-oxo-1,2,3,4-tetrahydroisoquinolin-7-yl)benzenesulfonamide], the pIC50 was above 7.00.

With `O=C1NCCc2ccc(NS(=O)(=O)c3ccccc3Cl)cc21` [Example 6A, 2-chloro-N-(1-oxo-1,2,3,4-tetrahydroisoquinolin-7-yl)benzenesulfonamide], the negative logarithm of the IC50 (pIC50) was below 6.00.

Compound `Cc1cc(S(=O)(=O)Nc2ccc(CC(N)=O)cc2)c(F)cc1F` [Example 8A] had a pIC50 below 6.00.

For the compound `O=C1NCCc2ccc(NS(=O)(=O)c3ccc(F)c(Cl)c3)cc21` [Example 9A, 3-chloro-4-fluoro-N-(1-oxo-1,2,3,4-tetrahydroisoquinolin-7-yl)benzenesulfonamide], the pIC50 is below 6.00.

On to `Cc1cc(C)c(S(=O)(=O)Nc2ccc3c(c2)C(=O)NCC3)c(C)c1` [Example 10A, 2,4,6-trimethyl-N-(1-oxo-1,2,3,4-tetrahydroisoquinolin-7-yl)benzenesulfonamide], for which the pIC50 was 6.00 to 6.30.

Take `CC(Nc1ccc2cn[nH]c2c1)c1cccc(Cl)c1Cl` (stereo not drawn) [Example 12A, N-(1-(2,3-dichlorophenyl)ethyl)-1H-indazol-6-amine]: the pIC50 is 6.00 to 6.30.

`CC(Nc1ccc2ccccc2c1)c1cccc(Cl)c1Cl` (stereo not drawn) [Example 13A, N-(1-(2,3-dichlorophenyl)ethyl)naphthalen-2-amine] showed a pIC50 below 6.00.

The compound `O=C1NCCc2ccc(NS(=O)(=O)c3ccc(F)cc3F)cc21` [Example 14A, 2,4-difluoro-N-(1-oxo-1,2,3,4-tetrahydroisoquinolin-7-yl)benzenesulfonamide] showed a pIC50 below 6.00.

In turn, `Cc1cc(F)cc(S(=O)(=O)Nc2ccc3c(c2)C(=O)NCC3)c1` [Example 15A, 3-fluoro-5-methyl-N-(1-oxo-1,2,3,4-tetrahydroisoquinolin-7-yl)benzenesulfonamide] had a pIC50 below 6.00.

The compound `O=C1NCCc2ccc(NC(c3ccccc3)c3ccccc3)cc21` [Example 124, 7-(benzhydrylamino)-3,4-dihydroisoquinolin-1(2H)-one] showed a pIC50 below 6.00.

`Cc1c(F)cccc1[S+]([O-])Nc1ccc2c(c1)C(=O)NCC2` (stereo not drawn) [Example 158] showed a pIC50 below 6.00.

`Cc1c(F)cccc1S(=O)(=O)Nc1cccc(-c2cscn2)c1` [Example 159, 3-fluoro-2-methyl-N-(3-(thiazol-4-yl)phenyl)benzenesulfonamide] had a pIC50 of 6.00 to 6.30.

As for `Cc1c(F)cccc1S(=O)(=O)Nc1cccc(-c2ccccn2)c1` [Example 160, 3-fluoro-2-methyl-N-(3-(pyridin-2-yl)phenyl)benzenesulfonamide], the pIC50 is 6.00 to 6.30.

Regarding `Cc1c(F)cccc1S(=O)(=O)Nc1cccc(-c2cnn(C)c2)c1` [Example 161, 3-fluoro-2-methyl-N-(3-(1-methyl-1H-pyrazol-4-yl)phenyl)benzenesulfonamide], the pIC50 was below 6.00.

Regarding `Cc1c(F)cccc1S(=O)(=O)Nc1cccc(-c2ccc[nH]c2=O)c1` [Example 162, 3-fluoro-2-methyl-N-[3-(2-oxo-1,2-dihydropyridin-3-yl)phenyl]benzenesulfonamide], the pIC50 was below 6.00.

Turning to `Cc1cc(F)cc(C(CO)Nc2ccc3c(c2)C(=O)NCC3)c1` (stereo not drawn) [Example 163, 7-((1-(3-fluoro-5-methylphenyl)-2-hydroxyethyl)amino)-3,4-dihydroisoquinolin-1(2H)-one], the pIC50 is below 6.00.

The compound `CC1CCN(S(=O)(=O)Nc2ccc3c(c2)C(=O)NCC3)CC1` [Example 164, 4-methyl-N-(1-oxo-1,2,3,4-tetrahydroisoquinolin-7-yl)piperidine-1-sulfonamide] gave a pIC50 below 6.00.

`CC1CN(S(=O)(=O)Nc2ccc3c(c2)C(=O)NCC3)CC(C)O1` (stereo not drawn) [Example 165, 2,6-dimethyl-N-(1-oxo-1,2,3,4-tetrahydroisoquinolin-7-yl)morpholine-4-sulfonamide] showed a pIC50 below 6.00.

`O=C1NCCc2ccc(NS(=O)(=O)N3C4CCCC3CC4)cc21` [Example 166, N-(1-oxo-1,2,3,4-tetrahydroisoquinolin-7-yl)-8-azabicyclo[3.2.1]octane-8-sulfonamide] gave a pIC50 below 6.00.

Take `CC1(C)CCCCN1S(=O)(=O)Nc1ccc2c(c1)C(=O)NCC2` [Example 168, 2,2-dimethyl-N-(1-oxo-1,2,3,4-tetrahydroisoquinolin-7-yl)piperidine-1-sulfonamide]: the pIC50 was below 6.00.

Turning to `Cc1cc(F)cc(C(C#N)Nc2ccc3c(c2)C(=O)NCC3)c1` (stereo not drawn) [Example 173, 2-(3-fluoro-5-methylphenyl)-2-((1-oxo-1,2,3,4-tetrahydroisoquinolin-7-yl)amino)acetonitrile], the pIC50 is below 6.00.

The compound `Cc1cc(F)cc(C(Nc2ccc3c(c2)C(=O)NCC3)C(F)(F)F)c1` (stereo not drawn) [Example 174, 7-((2,2,2-trifluoro-1-(3-fluoro-5-methylphenyl)ethyl)amino)-3,4-dihydroisoquinolin-1(2H)-one] gave a pIC50 of 6.30 to 7.00.

`Cc1cc(F)cc(C2(Nc3ccc4c(c3)C(=O)N(C)CC4)COC2)c1` [Example 175, 7-((3-(3-fluoro-5-methylphenyl)oxetan-3-yl)amino)-2-methyl-3,4-dihydroisoquinolin-1(2H)-one] showed a pIC50 below 6.00.

In the case of `Cc1cc(F)cc(C(CO)Oc2ccc3c(c2)C(=O)NCC3)c1` (stereo not drawn) [Example 176, 7-(1-(3-fluoro-5-methylphenyl)-2-hydroxyethoxy)-3,4-dihydroisoquinolin-1(2H)-one], the pIC50 is below 6.00.

`Cc1cc(F)cc(C(Nc2ccc3c(c2)C(=O)NCC3)c2ccncc2)c1` (stereo not drawn) [Example 177, 7-(((3-fluoro-5-methylphenyl)(pyridin-4-yl)methyl)amino)-3,4-dihydroisoquinolin-1(2H)-one] had a pIC50 below 6.00.

With `Clc1cccc(C(Nc2ccc3cccnc3c2)C2CCC2)c1Cl` (stereo not drawn) [Example 179, N-(cyclobutyl(2,3-dichlorophenyl)methyl)quinolin-7-amine], the pIC50 was 6.30 to 7.00.

With `Clc1cccc(C(Nc2ccc3cccnc3c2)C2CC2)c1Cl` (stereo not drawn) [Example 180, N-(cyclopropyl(2,3-dichlorophenyl)methyl)quinolin-7-amine], the pIC50 was 6.30 to 7.00.

As for `CC(Nc1ccc2c(c1)NC(=O)OC2)c1cccc(Cl)c1Cl` (stereo not drawn) [Example 181, 7-((1-(2,3-dichlorophenyl)ethyl)amino)-1,4-dihydro-2H-benzo[d][1,3]oxazin-2-one], the pIC50 is 6.30 to 7.00.

Compound `CC(Nc1ccc2cn[nH]c(=O)c2c1)c1c(Cl)ccc(F)c1Cl` (stereo not drawn) [Example 199] gave a pIC50 above 7.00.
